{"source": "patent US6051557A", "about": "“Methods of enhancing functioning of the upper gastrointestinal tract” (1149336 Ontario Inc., priority 1998, dated 2000)", "format_in_all_cases": "in vivo", "key": {"[1]": {"test_system": "mucosal epithelium and muscle layer of the esophagus", "test": "BrdU cell proliferation in mouse esophagus", "conditions": "female CD1 mice, 2.5 μg s.c. twice daily, 50 hr period, vs PBS", "from_the_text": "In this experiment, the effect of GLP-2 on cell proliferation of the mucosal epithelium and muscle layer of the esophagus was examined.\nFemale CD1 mice (6 weeks of age, approx. 25 g, Charles River) were housed in plastic bottom, wire lid cages and maintained on a 12 hr light/dark cycle and allowed chow and water ad libitum. The mice were weighed using a Mettler PJ300 scale and randomly allocated to either the control group (phosphate buffer saline injection (\"PBS\")) or the treatment group (human [Gly^2 ]GLP-2 injection). Each control or treatment group consisted of 2 mice housed together in 1 cage.\nThe female CD1 mice were treated (subcutaneously) with either human [Gly^2 ]GLP-2 2.5 μg or PBS alone, twice daily (8 a.m. and 6 p.m.) for 2 days prior to the bromodeoxyuridine (\"BrdU\") injection (50 ug/g body weight, in 0.5 ml). The mice received a total of 5 injections of either human [Gly^2 ]GLP-2 or saline over the previous 50 hours. Mice were fasted 21 hours before sacrifice. The mice were sacrificed 2 hours after receiving the BrdU injection. Upon sacrifice, sections of distal esophagus (the last 2 cm of esophagus adjacent to the gastroduodenal junction) were taken for histological analysis.\nThe esophageal tissues were fixed in 10% buffered formalin for over 24 hours and then placed in 70% alcohol prior to processing. […]"}, "esophagus": {"test_system": "esophagus", "test": "total protein content of mouse esophagus (modified Bradford assay)", "conditions": "female CD1 mice, 2.5 ug s.c. twice daily for 10 days, vs PBS", "protocol": "In this experiment, the effect of human [Gly^2 ]GLP-2 on protein synthesis in the mouse esophagus was examined. Female CD1 mice (6 weeks old) were housed and fed as described in Example 1. Two groups of mice (n=5 per group) were treated twice daily (subcutaneously) with either 0.5 ml PBS alone (control) or 2.5 ug in 0.5 ml PBS for 10 days. Following treatment, mice were anesthetized with CO2 and sacrificed for analysis. One (1) cm segments of esophagus tissue, between 2-4 cm proximal to the gastroduodenal junction, were harvested for analysis of total cellular protein. The 1 cm esophageal segments were placed in 1 ml of PBS and homogenized using a Polytron. Aliquots of the homogenate were taken for protein determination of protein content using the modified Bradford assay (BIORAD)."}, "stomach": {"test_system": "stomach", "test": "stomach mass after oral administration in drinking water", "conditions": "female CD1 mice, approx. 100 μg per day in drinking water, 12 days, p<0.05 vs normal drinking water", "protocol": "In this experiment, the effect of GLP-2 on the stomach mass was examined. Female CD1 mice (6 weeks old) were treated with human [[…] ]GLP-2 by oral administration in drinking water. The drinking water contained 4.3 μg/ml of human [[…] ]GLP-2 and was prepared fresh daily. Each mouse received approximately 100 μg of human [[…] ]GLP-2 per day. Following 12 days of treatment the mice were fasted for 24 hours, anesthetized with CO2 and sacrificed. The stomach of each mouse was removed and weighed."}, "[2]": {"test_system": "indomethacin induced mucosal epithelial damage", "test": "indomethacin induced gastroenterocolitis in mice", "conditions": "0.75 μg s.c. twice daily", "from_the_text": "In this experiment, the prophylactic and therepeutic effect of GLP-2 on indomethacin induced mucosal epithelial damage was studied.\nGLP-2 administration to mice and rats stimulates mucosal growth in both the small and large intestine via activation of crypt cell proliferation and inhibition of enterocyte apoptosis. To address the possibility that GLP-2 may be useful for the therapeutic and/or prophylactic treatment of mucosal epithelial damage, we have studied the use of a novel human GLP-2 analog, h[Gly^2 ]-GLP-2, in mice with experimental indomethacin induced gastroenterocolitis.\nSix to eight week old female CD1 mice (approximately 22-28 g, Charles River) were housed in plastic bottom, wire lid cages and maintained on a 12 hr light/dark cycle and allowed chow and water ad libitum throughout the study. The day prior to commencing the experiment, mice were weighed using a Mettler PJ300 scale and randomly allocated to a treatment group. Each treatment group consisted of 5 mice housed together. Subcutaneous injections of PBS or h[Gly^2 ]-GLP-2 peptide were given in the right hind quarter twice a day at 9 am and 7 pm. Injections started 4 days before indomethacin administration. Mice were fasted the night prior to receiving the first dose of indomethacin.\nMice were sacrificed between 9 am and 5 pm. […] Small and large bowel length were also measured. […]"}}}
{"smiles": "CC[C@H](C)[C@H](NC(=O)[C@H](Cc1ccccc1)NC(=O)[C@H](CC(=O)O)NC(=O)[C@H](CCCNC(=N)N)NC(=O)[C@H](C)NC(=O)[C@H](C)NC(=O)[C@H](CC(C)C)NC(=O)[C@H](CC(N)=O)NC(=O)[C@H](CC(=O)O)NC(=O)[C@H](CC(C)C)NC(=O)[C@@H](NC(=O)[C@@H](NC(=O)[C@H](CC(N)=O)NC(=O)[C@H](CCSC)NC(=O)[C@H](CCC(=O)O)NC(=O)[C@H](CC(=O)O)NC(=O)[C@H](CO)NC(=O)[C@H](Cc1ccccc1)NC(=O)[C@H](CO)NC(=O)CNC(=O)[C@H](CC(=O)O)NC(=O)CNC(=O)[C@@H](N)Cc1c[nH]cn1)[C@@H](C)O)[C@@H](C)CC)C(=O)N[C@@H](CC(N)=O)C(=O)N[C@@H](Cc1c[nH]c2ccccc12)C(=O)N[C@@H](CC(C)C)C(=O)N[C@H](C(=O)N[C@@H](CCC(N)=O)C(=O)N[C@H](C(=O)N[C@@H](CCCCN)C(=O)N[C@H](C(=O)N[C@H](C(=O)N[C@@H](CC(=O)O)C(=O)O)[C@@H](C)O)[C@@H](C)CC)[C@@H](C)O)[C@@H](C)CC", "note": "[human [Gly^2]GLP-2]", "values": [{"measurement": "cellular proliferation of the mucosal epithelium of the esophagus (number of BrDU-positive cells)", "setting": "[1]", "result": "significant increases"}, {"measurement": "cellular proliferation of the muscle layer of the esophagus (number of BrDU-positive cells)", "setting": "[1]", "result": "significant increases"}, {"measurement": "protein synthesis (total protein content) in esophagus tissue", "setting": "esophagus", "result": "increase"}, {"measurement": "weights of the stomachs", "setting": "stomach", "result": "significantly increase"}, {"measurement": "majority of parameters assessed, especially markers of epithelial damage/inflammation", "setting": "[2]; indomethacin-treated mice, vs saline", "result": "significantly improved"}, {"measurement": "survival", "setting": "[2]; treatment groups II-V, indomethacin 7 mg/kg, saline-treated controls 45-50%", "result": "75-95%"}]}
